Source: patent publication US10526320B2, “Pyrrolidine derivatives as PPAR agonists” (GUANGDONG RAYNOVENT BIOTECH CO., LTD., priority 2016, dated 2020)

Target: T1, PPAR Alpha (Homo sapiens, UniProt Q07869)
T1 sequence (Q07869 1-468): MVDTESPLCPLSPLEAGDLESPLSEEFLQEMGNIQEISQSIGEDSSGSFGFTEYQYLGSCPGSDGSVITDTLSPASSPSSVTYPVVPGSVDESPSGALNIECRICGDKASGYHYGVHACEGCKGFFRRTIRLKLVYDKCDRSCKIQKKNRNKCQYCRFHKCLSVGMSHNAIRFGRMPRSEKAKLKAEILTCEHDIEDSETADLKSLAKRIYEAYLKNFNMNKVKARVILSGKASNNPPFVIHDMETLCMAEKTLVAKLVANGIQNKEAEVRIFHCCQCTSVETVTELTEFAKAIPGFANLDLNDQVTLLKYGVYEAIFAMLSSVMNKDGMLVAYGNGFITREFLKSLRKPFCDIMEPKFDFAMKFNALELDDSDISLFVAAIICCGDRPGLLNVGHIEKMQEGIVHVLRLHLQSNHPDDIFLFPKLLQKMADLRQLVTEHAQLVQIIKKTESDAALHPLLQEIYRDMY
Assay: PathHunter NHR protein interaction / nuclear translocation agonist test, PPAR Alpha
Type: cell-based
Conditions: agonist mode; read-out: PPAR Alpha EC50

| SMILES | EC50 [nM] |
| --- | --- |
| CSc1ccc(C(=O)C2CN(C(=O)Oc3ccc(Br)cc3)CC2c2cc(C)c(OC(C)(C)C(=O)O)c(C)c2)cc1 (centres unmarked) [Compound 46] | < 100 |
| CSc1ccc(C(=O)/C=C/c2cc(C)c(OC(C)(C)C(=O)O)c(C)c2)cc1 [GFT-505, Elafibranor, reference compound] | > 250 |
| CSc1ccc(C(=O)C2CN(C(=O)Oc3ccccc3)CC2Cc2ccc(OC(C)(C)C(=O)O)c(F)c2)cc1 (single isomer, unassigned) [Compound 78] | 100 to 150 |
| CSc1ccc(C(=O)C2CN(C(=O)Oc3ccccc3)CC2CCc2ccc(OC(C)(C)C(=O)O)c(F)c2)cc1 (single isomer, unassigned) [Compound 82] | < 100 |
| COC(=O)N1CC(CCc2cc(C)c(OC(C)(C)C(=O)O)c(C)c2)C(C(=O)c2ccc(SC)cc2)C1 (single isomer, unassigned) [Compound 57] | < 100 |
| CSc1ccc(C(=O)C2CN(C(=O)Oc3ccccc3)CC2Cc2ccc(OC(C)(C)C(=O)O)cc2)cc1 (single isomer, unassigned) [Compound 76] | 100 to 150 |

Same assay, conditions: read-out: PPAR Alpha Maximum Activation Response %

| SMILES | Emax [%] |
| --- | --- |
| CSc1ccc(C(=O)C2CN(C(=O)Oc3ccc(Br)cc3)CC2c2cc(C)c(OC(C)(C)C(=O)O)c(C)c2)cc1 (centres unmarked) [Compound 46] | 80 to 100 |
| CSc1ccc(C(=O)/C=C/c2cc(C)c(OC(C)(C)C(=O)O)c(C)c2)cc1 [GFT-505, Elafibranor, reference compound] | 80 to 100 |
| CSc1ccc(C(=O)C2CN(C(=O)Oc3ccccc3)CC2Cc2ccc(OC(C)(C)C(=O)O)c(F)c2)cc1 (single isomer, unassigned) [Compound 78] | 80 to 100 |
| CSc1ccc(C(=O)C2CN(C(=O)Oc3ccccc3)CC2CCc2ccc(OC(C)(C)C(=O)O)c(F)c2)cc1 (single isomer, unassigned) [Compound 82] | 80 to 100 |
| COC(=O)N1CC(CCc2cc(C)c(OC(C)(C)C(=O)O)c(C)c2)C(C(=O)c2ccc(SC)cc2)C1 (single isomer, unassigned) [Compound 57] | 80 to 100 |
| CSc1ccc(C(=O)C2CN(C(=O)Oc3ccccc3)CC2Cc2ccc(OC(C)(C)C(=O)O)cc2)cc1 (single isomer, unassigned) [Compound 76] | 80 to 100 |

Target: T2, PPAR Delta (Homo sapiens, UniProt Q03181)
T2 sequence (Q03181 1-441): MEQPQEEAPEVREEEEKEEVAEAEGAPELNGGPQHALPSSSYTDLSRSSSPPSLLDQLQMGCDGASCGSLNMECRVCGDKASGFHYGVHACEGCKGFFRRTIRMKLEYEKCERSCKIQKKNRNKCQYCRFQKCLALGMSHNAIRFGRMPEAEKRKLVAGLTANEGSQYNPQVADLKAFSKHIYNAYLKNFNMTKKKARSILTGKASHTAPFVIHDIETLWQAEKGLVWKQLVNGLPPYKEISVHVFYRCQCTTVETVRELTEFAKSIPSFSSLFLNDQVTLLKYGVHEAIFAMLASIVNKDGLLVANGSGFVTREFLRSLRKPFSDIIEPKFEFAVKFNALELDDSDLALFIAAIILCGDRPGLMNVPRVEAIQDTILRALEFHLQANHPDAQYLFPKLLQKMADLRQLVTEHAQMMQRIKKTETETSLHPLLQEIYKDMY
Assay: PathHunter NHR protein interaction / nuclear translocation agonist test, PPAR Delta
Type: cell-based
Conditions: agonist mode; read-out: PPAR Delta EC50

| SMILES | EC50 [nM] |
| --- | --- |
| CSc1ccc(C(=O)C2CN(C(=O)Oc3ccc(Br)cc3)CC2c2cc(C)c(OC(C)(C)C(=O)O)c(C)c2)cc1 (centres unmarked) [Compound 46] | < 100 |
| CSc1ccc(C(=O)C2CN(C(=O)Oc3ccccc3)CC2Cc2ccc(OC(C)(C)C(=O)O)c(F)c2)cc1 (single isomer, unassigned) [Compound 78] | 100 to 150 |
| CSc1ccc(C(=O)C2CN(C(=O)Oc3ccccc3)CC2CCc2ccc(OC(C)(C)C(=O)O)c(F)c2)cc1 (single isomer, unassigned) [Compound 82] | 100 to 150 |
| COC(=O)N1CC(CCc2cc(C)c(OC(C)(C)C(=O)O)c(C)c2)C(C(=O)c2ccc(SC)cc2)C1 (single isomer, unassigned) [Compound 57] | < 100 |
| CSc1ccc(C(=O)C2CN(C(=O)Oc3ccccc3)CC2Cc2ccc(OC(C)(C)C(=O)O)cc2)cc1 (single isomer, unassigned) [Compound 76] | 100 to 150 |

Same assay, conditions: read-out: PPAR Delta Maximum Activation Response %

| SMILES | Emax [%] |
| --- | --- |
| CSc1ccc(C(=O)C2CN(C(=O)Oc3ccc(Br)cc3)CC2c2cc(C)c(OC(C)(C)C(=O)O)c(C)c2)cc1 (centres unmarked) [Compound 46] | 80 to 100 |
| CSc1ccc(C(=O)/C=C/c2cc(C)c(OC(C)(C)C(=O)O)c(C)c2)cc1 [GFT-505, Elafibranor, reference compound] | 50 to 80 |
| COC(=O)N1CC(CCc2cc(C)c(OC(C)(C)C(=O)O)c(C)c2)C(C(=O)c2ccc(SC)cc2)C1 (single isomer, unassigned) [Compound 57] | 50 to 80 |

Same assay, conditions: relative to known PPARδ agonist L-165,041 = 100%; read-out: PPAR Delta Maximum Activation Response %

| SMILES | Emax [%] |
| --- | --- |
| CSc1ccc(C(=O)C2CN(C(=O)Oc3ccccc3)CC2Cc2ccc(OC(C)(C)C(=O)O)c(F)c2)cc1 (single isomer, unassigned) [Compound 78] | 80 to 100 |
| CSc1ccc(C(=O)C2CN(C(=O)Oc3ccccc3)CC2CCc2ccc(OC(C)(C)C(=O)O)c(F)c2)cc1 (single isomer, unassigned) [Compound 82] | 80 to 100 |
| CSc1ccc(C(=O)C2CN(C(=O)Oc3ccccc3)CC2Cc2ccc(OC(C)(C)C(=O)O)cc2)cc1 (single isomer, unassigned) [Compound 76] | 80 to 100 |

Target: T3, PPAR Gamma (Homo sapiens, UniProt P37231)
T3 sequence (P37231 1-505): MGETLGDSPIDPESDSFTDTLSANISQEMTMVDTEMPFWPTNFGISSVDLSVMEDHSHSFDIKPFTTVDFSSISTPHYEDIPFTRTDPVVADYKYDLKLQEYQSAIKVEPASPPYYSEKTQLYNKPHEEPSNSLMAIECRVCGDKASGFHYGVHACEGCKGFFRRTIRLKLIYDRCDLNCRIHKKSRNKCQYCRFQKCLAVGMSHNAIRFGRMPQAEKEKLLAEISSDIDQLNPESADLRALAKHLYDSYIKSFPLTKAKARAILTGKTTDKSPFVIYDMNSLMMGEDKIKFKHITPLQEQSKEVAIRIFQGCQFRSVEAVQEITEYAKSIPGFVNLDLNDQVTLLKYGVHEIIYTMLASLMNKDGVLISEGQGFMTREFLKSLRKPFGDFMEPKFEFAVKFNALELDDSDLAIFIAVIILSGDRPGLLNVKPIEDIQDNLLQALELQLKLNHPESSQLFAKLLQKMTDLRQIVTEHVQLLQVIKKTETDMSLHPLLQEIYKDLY
Assay: PathHunter NHR protein interaction / nuclear translocation agonist test, PPAR Gamma
Type: cell-based
Conditions: agonist mode; read-out: PPAR Gamma EC50

| SMILES | EC50 [nM] |
| --- | --- |
| CSc1ccc(C(=O)C2CN(C(=O)Oc3ccc(Br)cc3)CC2c2cc(C)c(OC(C)(C)C(=O)O)c(C)c2)cc1 (centres unmarked) [Compound 46] | > 250 |
| CSc1ccc(C(=O)/C=C/c2cc(C)c(OC(C)(C)C(=O)O)c(C)c2)cc1 [GFT-505, Elafibranor, reference compound] | > 250 |
| CSc1ccc(C(=O)C2CN(C(=O)Oc3ccccc3)CC2Cc2ccc(OC(C)(C)C(=O)O)c(F)c2)cc1 (single isomer, unassigned) [Compound 78] | > 250 |
| CSc1ccc(C(=O)C2CN(C(=O)Oc3ccccc3)CC2CCc2ccc(OC(C)(C)C(=O)O)c(F)c2)cc1 (single isomer, unassigned) [Compound 82] | 200 to 250 |
| COC(=O)N1CC(CCc2cc(C)c(OC(C)(C)C(=O)O)c(C)c2)C(C(=O)c2ccc(SC)cc2)C1 (single isomer, unassigned) [Compound 57] | 200 to 250 |
| CSc1ccc(C(=O)C2CN(C(=O)Oc3ccccc3)CC2Cc2ccc(OC(C)(C)C(=O)O)cc2)cc1 (single isomer, unassigned) [Compound 76] | > 250 |

Same assay, conditions: read-out: PPAR Gamma Maximum Activation Response %

| SMILES | Emax [%] |
| --- | --- |
| CSc1ccc(C(=O)C2CN(C(=O)Oc3ccc(Br)cc3)CC2c2cc(C)c(OC(C)(C)C(=O)O)c(C)c2)cc1 (centres unmarked) [Compound 46] | 80 to 100 |
| CSc1ccc(C(=O)/C=C/c2cc(C)c(OC(C)(C)C(=O)O)c(C)c2)cc1 [GFT-505, Elafibranor, reference compound] | 50 to 80 |
| COC(=O)N1CC(CCc2cc(C)c(OC(C)(C)C(=O)O)c(C)c2)C(C(=O)c2ccc(SC)cc2)C1 (single isomer, unassigned) [Compound 57] | 50 to 80 |

Same assay, conditions: relative to known PPARγ agonist Troglitazone = 100%; read-out: PPAR Gamma Maximum Activation Response %

| SMILES | Emax [%] |
| --- | --- |
| CSc1ccc(C(=O)C2CN(C(=O)Oc3ccccc3)CC2Cc2ccc(OC(C)(C)C(=O)O)c(F)c2)cc1 (single isomer, unassigned) [Compound 78] | 80 to 100 |
| CSc1ccc(C(=O)C2CN(C(=O)Oc3ccccc3)CC2CCc2ccc(OC(C)(C)C(=O)O)c(F)c2)cc1 (single isomer, unassigned) [Compound 82] | 80 to 100 |
| CSc1ccc(C(=O)C2CN(C(=O)Oc3ccccc3)CC2Cc2ccc(OC(C)(C)C(=O)O)cc2)cc1 (single isomer, unassigned) [Compound 76] | 80 to 100 |
